Earlier results, collected in US20160302965A1, “IMPLANTABLE THERAPEUTIC DEVICES” (ForSight Vision4, Inc., priority 2013, published 2016).

SMILES | solubility of the prodrug (concentration maintained in the fluid boundary layer) | solubility in PBS at pH 7 (pH 7) | solubility at pH 7 (pH 7)
CCNC(=O)CCC/C=C\C[C@@H]1[C@@H](/C=C/[C@@H](O)CCc2ccccc2)[C@H](O)C[C@@H]1O [bimatoprost] | 300 µg/mL | 300 ug/ml | –
Brc1c(NC2=NCCN2)ccc2nccnc12 [brimonidine] | – | – | about 600 ug/ml
O=C(O)CCC/C=C\C[C@@H]1[C@@H](CC[C@@H](O)CCc2ccccc2)[C@H](O)C[C@@H]1O [latanoprost free acid] | – | 800 ug/ml | –
CC(C)OC(=O)CCC/C=C\C[C@@H]1[C@@H](CC[C@@H](O)CCc2ccccc2)[C@H](O)C[C@@H]1O [latanoprost] | – | 50 ug/ml | –
